PMC8248901 (Journal of clinical haematology, 2021)
Read-outs that look alike come from different tables or passages of the source. Each block holds one compound with its values, some of them ahead of it.

How the values were obtained:
[1] = system: relapsed or refractory mantle cell lymphoma (MCL) and diffuse large B-cell lymphoma (DLBCL); design: method as in NCT00445341; details: flavopiridol, ref NCT00445341, cited from earlier work
[2] = system: newly diagnosed acute myeloid leukemia; design: method as in NCT00795002; details: ref NCT00795002, cited from earlier work
[3] = system: lymphoma or multiple myeloma; design: method as in NCT00112723; details: flavopiridol, trial terminated (administratively complete); ref NCT00112723; cited from earlier work
[4] = system: advanced ovarian epithelial cancer or primary peritoneal cancer; design: method as in NCT00083122; details: cisplatin together with flavopiridol, ref NCT00083122, cited from earlier work
[5] = system: previously treated chronic lymphocytic leukemia or lymphocytic lymphoma; design: method as in NCT00058240; details: ref NCT00058240, cited from earlier work
[6] = system: relapsed or refractory acute myeloid leukemia; design: method as in NCT00634244; details: combination chemotherapy regimen, not given; ref NCT00634244; cited from earlier work
[7] = system: newly diagnosed acute myeloid leukemia; design: method as in NCT01349972; details: alvocidib, cytarabine, and mitoxantrone hydrochloride; ref NCT01349972; cited from earlier work
p38δ = biological target: T1, p38δ (Homo sapiens, UniProt O15264); assay: In vitro kinase assay using ADP-Glo, p38δ; assay type: biochemical; details: cell-free
T1 construct: human recombinant p38α, β, γ, or δ protein kinases (active full-length) were acquired from SignalChem; purchased SignalChem
T1 sequence (O15264 1-365): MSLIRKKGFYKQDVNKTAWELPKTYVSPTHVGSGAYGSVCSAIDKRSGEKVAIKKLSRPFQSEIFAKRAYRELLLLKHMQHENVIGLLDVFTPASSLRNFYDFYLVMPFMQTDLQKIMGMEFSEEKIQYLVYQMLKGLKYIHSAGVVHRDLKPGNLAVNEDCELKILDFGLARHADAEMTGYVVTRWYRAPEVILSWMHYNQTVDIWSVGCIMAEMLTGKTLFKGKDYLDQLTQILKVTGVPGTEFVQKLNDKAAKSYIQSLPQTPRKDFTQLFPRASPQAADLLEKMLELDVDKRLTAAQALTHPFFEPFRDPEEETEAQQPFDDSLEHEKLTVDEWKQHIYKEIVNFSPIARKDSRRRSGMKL
Description: (§1) Therefore, we attempted to screen p38γ inhibitors from […] by performing an in vitro kinase assay using ADP-Glo as readout for activated p38 isoforms.
(§2) To identify p38γ inhibitors using in vitro kinase assay, a library of kinase inhibitors was screened. The library consists of 244 compounds on three plates (EMD Cat#539744, #539745 and #539746) that are mostly ATP mimics. […] For biochemical screening, in vitro kinase assays were performed using an ADP-Glo kit (Promega, Madison, WI) according to the manufacture’s protocol. […] Briefly, for in vitro assay experiments, human recombinant p38α, β, γ, or δ protein kinases (active full-length) were acquired from SignalChem, and the assay was performed followed protocols from the company. […] Then, ADP-Glo Reagent was incubated in the mixture at room temperature for 40 min, followed by incubation of Kinase Detection Reagent for another 30 min. IC50 values were determined using CalcuSyn software (Biosoft, Cambridge, United Kingdom).

p38α = biological target: T2, p38α (Homo sapiens, UniProt Q16539); assay: In vitro kinase assay using ADP-Glo, p38α; assay type: biochemical; details: cell-free
T2 construct: human recombinant p38α, β, γ, or δ protein kinases (active full-length) were acquired from SignalChem; purchased SignalChem
Description: as §1, §2

CTCL [8] = assay: Efficacy in CTCL (IC50s quoted in the discussion); assay type: cell-based
[9] = system: advanced stomach or gastro-esophageal junction cancer; design: method as in NCT00991952; details: irinotecan hydrochloride with or without alvocidib; ref NCT00991952; cited from earlier work
[10] = system: newly diagnosed acute myeloid leukemia; design: method as in NCT00407966; details: alvocidib together with cytarabine and mitoxantrone; ref NCT00407966; cited from earlier work
Hut78 CTCL cells = assay: cells; assay type: cell-based; details: Homo sapiens
Description: Cell viability was calculated by diluting cell suspensions 1:1 in 0.4% Trypan Blue solution (Sigma, St. Louis, MO) and counting the number of viable cells using a TC20™ automated cell counter (Bio-Rad, Irvine, CA) which automatically excludes the number of non-viable cells stained with trypan blue per total cells. CellTiterGlo Cell Viability Assay (Promega) method was used as described previously. All data points are an average of triplicate experiments.
CellTiterGlo Cell Viability Assay (Promega) was used to measure viability of Hut78 CTCL cells. […] using an automated BMG PHERAstar plate reader (BMG Labtech, Ortenberg, Germany). IC50 values were determined using CalcuSyn software. All experiments were repeated in three independent experiments and data represented are the average of triplicate experiments.

[11] = system: refractory metastatic pancreatic cancer; design: method as in NCT00331682; details: docetaxel followed by flavopiridol; ref NCT00331682; cited from earlier work
p38γ = biological target: T3, p38γ (Homo sapiens, UniProt P53778); assay: In vitro kinase assay using ADP-Glo, p38γ; assay type: biochemical; details: for inhibition of p38γ kinase activity (in words): drugs targeting CDK9, Appendix A Figure 7
T3 construct: human recombinant p38α, β, γ, or δ protein kinases (active full-length) were acquired from SignalChem; purchased SignalChem
T3 sequence (P53778 1-367): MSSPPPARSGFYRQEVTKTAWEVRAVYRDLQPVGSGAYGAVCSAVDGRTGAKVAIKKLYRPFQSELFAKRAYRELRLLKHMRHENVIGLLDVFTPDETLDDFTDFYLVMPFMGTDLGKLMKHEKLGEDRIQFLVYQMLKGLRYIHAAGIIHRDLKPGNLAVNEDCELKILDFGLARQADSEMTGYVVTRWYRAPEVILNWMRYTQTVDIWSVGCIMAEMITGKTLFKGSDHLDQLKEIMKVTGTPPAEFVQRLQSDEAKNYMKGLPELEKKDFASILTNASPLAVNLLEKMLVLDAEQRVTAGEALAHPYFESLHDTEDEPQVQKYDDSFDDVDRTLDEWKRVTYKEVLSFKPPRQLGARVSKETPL
Description: as §1, §2

CTCL [12] = system: CTCL; design: method as in printed at the place; details: authors' previous studies of F7, no ref printed at the place, read-out: IC50, efficacy in CTCL; cited from earlier work
Hut78 cells = assay: Combination treatment of FVP and niclosamide, MTS, CI by CompuSyn; assay type: cell-based; details: 72 hours
[13] = arm 1, alvocidib with cytarabine and mitoxantrone
[14] = arm 2, alvocidib with cytarabine and mitoxantrone
[15] = HuT78, read-out: Cytotoxicity IC50, Hut78 CTCL cells

T2 sequence (Q16539 whole entry): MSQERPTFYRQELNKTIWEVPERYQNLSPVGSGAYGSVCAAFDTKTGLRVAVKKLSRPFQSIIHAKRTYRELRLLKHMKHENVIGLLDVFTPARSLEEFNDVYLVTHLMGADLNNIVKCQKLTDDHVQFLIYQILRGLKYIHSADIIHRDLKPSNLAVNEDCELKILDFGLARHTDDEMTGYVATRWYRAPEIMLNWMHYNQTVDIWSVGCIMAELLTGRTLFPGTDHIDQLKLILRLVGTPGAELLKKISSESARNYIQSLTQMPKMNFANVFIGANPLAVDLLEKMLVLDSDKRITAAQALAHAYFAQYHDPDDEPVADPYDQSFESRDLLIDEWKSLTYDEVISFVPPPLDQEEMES

- IC50 (p38δ): 450 nM
- IC50 (p38α): 1340 nM
- IC50 (CTCL [8]): 120 nM
Compound: CN1CC[C@H](c2c(O)cc(O)c3c(=O)cc(-c4ccccc4Cl)oc23)[C@H](O)C1 [FVP, Flavopiridol]
- serious adverse events ([1]; patients affected/total): 14/28
- partial response ([1]; patients responding/evaluated): 2/26
- complete response [1]: no complete response
- Serious adverse event [2, 13]: 8/39
- complete response [2, 13]: 24/37
- Serious adverse event [2, 14]: 8/39
- complete response [2, 14]: 29/37
- partial response [3]: 6/43 partial response
- complete response ([4]; out of 45 patients): 1
- partial responses ([4]; out of 45 patients): 8
- Median OS [4]: 17.5 months
- median time to progression [4]: 4.3 months
- serious adverse events [4]: 23/45
- ORR ([5]; flavopiridol): 21/52
- serious adverse events ([5]; highest dose group): 1/16
- serious adverse events ([5]; lower dose group): 11/42
- Serious adverse event [6]: 36/36
- complete remission [6]: 10/36
- complete response [7]: 76/109
- serious adverse events [7]: 53/114
- partial response [9]: 1/13
- serious adverse events [9]: 6/13
- stable disease [9]: 4/13
- serious adverse events [10]: 19/45
- IC50 (Hut78 CTCL cells; [15]): 94 nM
- IC50 (Hut78 CTCL cells; HuT78, read-out: Cytotoxicity IC50, Hut78 cells, abstract): < 100 nM
- median overall survival [11]: 4.2 months
- median time to disease progression [11]: 8 weeks
- serious adverse events [11]: 9/9
- stable disease [11]: 3/9

- IC50 (p38γ; cell-free, ADP-Glo): 1600 nM
- targets p38δ isoform (in words) (p38δ): targets three isoforms except p38δ
Compound: O=c1c(O)c(-c2cc(O)c(O)c(O)c2)oc2cc(O)cc(O)c12 [Myricetin]
- IC50 (Hut78 CTCL cells; [15]): 19200 nM

- inhibition of p38γ kinase activity (in words) (p38γ): inhibit p38γ kinase activity
Compound: CN1CCC(c2c(O)cc(O)c3c(=O)cc(-c4ccccc4Cl)oc23)C1CO (centres unmarked) [P276-00]

- inhibition of p38γ kinase activity (in words) (p38γ): inhibit p38γ kinase activity
Compound: Cc1ccc([N+](=O)[O-])cc1S(=O)(=O)N(C)/N=C/c1cnc2ccc(Br)cn12 [F7]
- IC50 (CTCL [12]): 29 to 33 nM

Compound: O=C(Nc1ccc([N+](=O)[O-])cc1Cl)c1cc(Cl)ccc1O [niclosamide]
- CI (Hut78 cells; FVP 60.0 nM + Nic 0.2 μM (200 nM)): 0.6
- CI (Hut78 cells; FVP 240.0 nM + Nic 0.2 μM (200 nM)): 0.7
